Like-named read-outs stand apart in the source and are kept apart here.
Biological target: nAChRs comprised of α4 and β2 subunits (Rattus norvegicus, UniProt P09483+P12390)
Test: In vitro inhibition of 3H-cytisine binding
Description: In Vitro Inhibition of ^3H-Cytisine Binding
Molecular biology studies have elucidated that there are at least ten nicotinic receptor genes in the brain. The predominant subtype with high affinity for nicotine is comprised of α4 and β2 subunits. nAChRs of the latter type can selectively be labelled by the nicotine agonist ^3H-cytisine.
A standard assay for determining in vitro inhibition of ^3H-cytisine binding is described in e.g. WO 02/096911. When subjected to this test the compounds of the invention show inhibitory activity on the micromolar or sub-micromolar range.

Sequence of nAChRs comprised of α4 and β2 subunits (P09483 31-630): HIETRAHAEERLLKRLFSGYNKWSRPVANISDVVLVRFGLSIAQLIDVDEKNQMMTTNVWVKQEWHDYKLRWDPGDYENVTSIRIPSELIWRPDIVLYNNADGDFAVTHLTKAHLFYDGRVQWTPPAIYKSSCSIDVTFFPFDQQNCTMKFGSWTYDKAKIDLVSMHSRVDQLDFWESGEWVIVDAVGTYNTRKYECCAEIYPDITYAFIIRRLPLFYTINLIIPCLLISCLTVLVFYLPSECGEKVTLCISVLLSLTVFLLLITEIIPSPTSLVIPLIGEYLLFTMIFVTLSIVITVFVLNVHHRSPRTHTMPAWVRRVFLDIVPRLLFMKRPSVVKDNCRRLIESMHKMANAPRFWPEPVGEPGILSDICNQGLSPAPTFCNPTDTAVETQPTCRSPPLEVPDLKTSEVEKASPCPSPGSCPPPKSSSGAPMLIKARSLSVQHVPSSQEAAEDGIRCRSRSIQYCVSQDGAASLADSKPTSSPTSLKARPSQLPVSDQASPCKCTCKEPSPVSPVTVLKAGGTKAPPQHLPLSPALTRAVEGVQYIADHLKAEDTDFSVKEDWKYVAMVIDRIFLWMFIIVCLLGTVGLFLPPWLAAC
Sequence of nAChRs comprised of α4 and β2 subunits (P12390 25-500): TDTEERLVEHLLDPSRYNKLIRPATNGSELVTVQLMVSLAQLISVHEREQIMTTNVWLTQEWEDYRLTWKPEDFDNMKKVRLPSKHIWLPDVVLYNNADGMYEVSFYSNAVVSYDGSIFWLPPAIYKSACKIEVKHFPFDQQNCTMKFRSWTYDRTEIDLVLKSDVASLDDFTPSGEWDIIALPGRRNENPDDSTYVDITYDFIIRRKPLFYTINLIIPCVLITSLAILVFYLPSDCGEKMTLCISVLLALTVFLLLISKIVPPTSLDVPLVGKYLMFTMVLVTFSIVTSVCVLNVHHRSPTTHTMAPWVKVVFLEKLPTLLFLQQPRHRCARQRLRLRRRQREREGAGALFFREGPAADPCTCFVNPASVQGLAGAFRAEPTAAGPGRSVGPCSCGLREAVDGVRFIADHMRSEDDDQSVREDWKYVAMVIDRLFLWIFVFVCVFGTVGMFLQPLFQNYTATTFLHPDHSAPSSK

Structure (SMILES) | IC50 [nM] | IC50 (3H-cytisine as radioligand, standard assay as described in WO 02/096911, read-out: In vitro Inhibition of 3H-cytisine Binding IC50) [nM]
CN1C2CCCC1CN(c1cncc(Cl)c1)C2 [Compound A1, 3-(5-Chloro-pyridin-3-yl)-9-methyl-3,9-diaza-bicyclo[3.3.1]nonane] | 6.3 | –
c1cncc(N2CC3CCCC(C2)N3)c1 [Compound B1, 3-Pyridin-3-yl-3,9-diaza-bicyclo[3.3.1]nonane] | 2.5 | –
CN1C2CCCC1CN(c1cccnn1)C2 [Compound C1, 9-Methyl-3-pyridazin-3-yl-3,9-diaza-bicyclo[3.3.1]nonane] | – | 460

From patent publication US7687523B2, “3-heteroaryl-3,9-diazabicyclo[3.3.1]nonane derivatives as nicotinic acetylcholine receptor agonists” (Neurosearch A/S, priority 2006, dated 2010)
